The source of these data is patent US8653263B2 (Janssen Pharmaceutica, priority 2009, dated 2014).

This experiment deals with human orexin-2 receptor (Homo sapiens (Human), UniProt O43614). The experiment can be described thus: Human orexin 2 receptor radioligand binding ([3H]-EMPA competition). The conditions noted are these: HEK293 cells stably expressing human orexin-2 receptor; [3H]-EMPA 5 nM final; apparent Ki=IC50/(1+C/Kd), Kd=2 nM; read-out: OR 2 Ki.
Chain of human orexin-2 receptor (O43614 whole entry): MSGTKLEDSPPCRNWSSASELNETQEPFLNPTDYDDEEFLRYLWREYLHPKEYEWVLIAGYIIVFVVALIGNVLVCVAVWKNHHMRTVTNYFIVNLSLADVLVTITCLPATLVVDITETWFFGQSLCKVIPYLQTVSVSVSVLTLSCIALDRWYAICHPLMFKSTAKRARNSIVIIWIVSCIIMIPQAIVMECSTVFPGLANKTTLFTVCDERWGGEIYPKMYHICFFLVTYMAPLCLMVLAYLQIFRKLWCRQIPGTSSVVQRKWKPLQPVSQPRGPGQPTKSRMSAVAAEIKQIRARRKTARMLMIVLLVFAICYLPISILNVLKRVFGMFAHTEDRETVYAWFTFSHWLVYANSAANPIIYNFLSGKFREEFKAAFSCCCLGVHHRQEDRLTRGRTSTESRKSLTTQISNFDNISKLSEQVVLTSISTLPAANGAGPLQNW
Regarding `Cc1ccnc(N2CC3CN(C(=O)c4ccccc4-c4cccc(F)c4)CC3C2)n1` (stereo not drawn) [Example 48, 2-[(3′-Fluorobiphenyl-2-yl)carbonyl]-5-(4-methylpyrimidin-2-yl)octahydro-pyrrolo[3,4-c]pyrrole], the Ki was 716 nM. The result for `Cc1cc(C)nc(N2CC3CN(C(=O)c4ccc(F)cc4C(F)(F)F)CC3C2)n1` (stereo not drawn) [Example 89, 2-(4,6-Dimethylpyrimidin-2-yl)-5-{[4-fluoro-2-(trifluoromethyl)phenyl]carbonyl}octahydropyrrolo[3,4-c]pyrrole] reads 452 nM; that for `CCOc1ccccc1C(=O)N1CC2CN(c3nccc(OC)n3)CC2C1` (stereo not drawn) [Example 59, 2-[(2-Ethoxyphenyl)carbonyl]-5-(4-methoxypyrimidin-2-yl)octahydropyrrolo[3,4-c]pyrrole], 778 nM. In the case of `Cc1cc(C)nc(N2CC3CN(C(=O)c4cccc(F)c4-c4ncccc4F)CC3C2)n1` (stereo not drawn) [Example 375, (5-(4,6-Dimethylpyrimidin-2-yl)hexahydropyrrolo[3,4-c]pyrrol-2(1H)-yl)(3-fluoro-2-(3-fluoropyridin-2-yl)phenyl)methanone] it was 21 nM. Take `Cc1ccc(-c2ccccc2C(=O)N2CC3CN(c4cnc5ccccc5n4)CC3C2)cc1` (stereo not drawn) [Example 193, (4′-Methyl-biphenyl-2-yl)-(5-quinoxalin-2-yl-hexahydro-pyrrolo[3,4-c]pyrrol-2-yl)-methanone]: the Ki turned out to be 1160 nM.

With `Cc1cc(N2CC3CN(C(=O)c4ccccc4-c4ccccc4)CC3C2)nc2ccccc12` (stereo not drawn) [Example 178, 2-[5-(Biphenyl-2-ylcarbonyl)hexahydropyrrolo[3,4-c]pyrrol-2(1H)-yl]-4-methylquinoline], the Ki came to 123 nM. `Cc1cc(C)nc(N2CC3CN(C(=O)c4cccc(C)c4C)CC3C2)n1` (stereo not drawn) [Example 219, 2-[(2,3-Dimethylphenyl)carbonyl]-5-(4,6-dimethylpyrimidin-2-yl)octahydropyrrolo[3,4-c]pyrrole]: the Ki came out at 404 nM. Consider `Cc1cnc(C)c(N2CC3CN(C(=O)c4ccccc4-c4cccs4)CC3C2)n1` (stereo not drawn) [Example 63, 2-(3,6-Dimethylpyrazin-2-yl)-5-[(2-thiophen-2-ylphenyl)carbonyl]octahydro-pyrrolo[3,4-c]pyrrole], for which the Ki was 44 nM. In the case of `O=C(c1cccc(F)c1Br)N1CC2CN(c3ncc4cc(F)ccc4n3)CC2C1` (stereo not drawn) [Example 247, (2-Bromo-3-fluorophenyl)(5-(6-fluoroquinazolin-2-yl)hexahydropyrrolo[3,4-c]pyrrol-2(1H)-yl)methanone] it was 650 nM; in that of `COc1ccnc(N2CC3CN(C(=O)c4cccc5ccccc45)CC3C2)n1` (stereo not drawn) [Example 58, 2-(4-Methoxypyrimidin-2-yl)-5-(naphthalen-1-ylcarbonyl)octahydropyrrolo[3,4-c]pyrrole], 227 nM.

Regarding `Cc1cc(C)nc(N2CC3CN(C(=O)c4cccc(F)c4-c4ccccn4)CC3C2)n1` (stereo not drawn) [Example 367, (5-(4,6-Dimethylpyrimidin-2-yl)hexahydropyrrolo[3,4-c]pyrrol-2(1H)-yl)(3-fluoro-2-(pyridin-2-yl)phenyl)methanone], the Ki stood at 15 nM. In the case of `Cc1cc(N2CC3CN(C(=O)c4cc(F)ccc4-n4nccn4)CC3C2)nc(C)n1` (stereo not drawn) [Example 115, [5-(2,6-Dimethyl-pyrimidin-4-yl)-hexahydro-pyrrolo[3,4-c]pyrrol-2-yl]-(5-fluoro-2-[1,2,3]triazol-2-yl-phenyl)-methanone] it was 5000 nM; in that of `Cc1ccoc1C(=O)N1CC2CN(c3ccc(C(F)(F)F)cn3)CC2C1` (stereo not drawn) [Example 353, 2-[(3-Methylfuran-2-yl)carbonyl]-5-[5-(trifluoromethyl)pyridin-2-yl]octahydropyrrolo[3,4-c]pyrrole], 10000 nM; in that of `Cc1ccc(-n2nccn2)c(C(=O)N2CC3CN(c4nc(C)cnc4C)CC3C2)c1` (stereo not drawn) [Example 123, [5-(3,6-Dimethyl-pyrazin-2-yl)-hexahydro-pyrrolo[3,4-c]pyrrol-2-yl]-(5-methyl-2-[1,2,3]triazol-2-yl-phenyl)-methanone], 44 nM. In the case of `O=C(c1ccccc1-c1cccs1)N1CC2CN(c3nccc(-c4ccccc4)n3)CC2C1` (stereo not drawn) [Example 22, 2-(4-Phenylpyrimidin-2-yl)-5-[(2-thiophen-2-ylphenyl)carbonyl]octahydro-pyrrolo[3,4-c]pyrrole] it was 70 nM; in that of `COc1cc2ccccc2cc1C(=O)N1CC2CN(c3nc(C)cc(C)n3)CC2C1` (stereo not drawn) [Example 338, [5-(4,6-Dimethyl-pyrimidin-2-yl)-hexahydro-pyrrolo[3,4-c]pyrrol-2-yl]-(3-methoxy-naphthalen-2-yl)-methanone], 1600 nM. In the case of `Cc1cc(N2CC3CN(C(=O)c4cc(F)ccc4-c4ncccn4)CC3C2)nc(C(F)(F)F)n1` (stereo not drawn) [Example 204, (5-Fluoro-2-pyrimidin-2-yl-phenyl)-[5-(6-methyl-2-trifluoromethyl-pyrimidin-4-yl)-hexahydro-pyrrolo[3,4-c]pyrrol-2-yl]-methanone] it was 50 nM; in that of `Cc1cc(C)nc(N2CC3CN(C(=O)c4ccccc4-c4ncn(C)n4)CC3C2)n1` (stereo not drawn) [Example 308, 2-(4,6-Dimethylpyrimidin-2-yl)-5-{[2-(1-methyl-1H-1,2,4-triazol-3-yl)phenyl]carbonyl}octahydropyrrolo[3,4-c]pyrrole], 26 nM; in that of `COc1cccc(OC)c1C(=O)N1CC2CN(c3nc(C)cc(C)n3)CC2C1` (stereo not drawn) [Example 351, (2,6-Dimethoxyphenyl)(5-(4,6-dimethylpyrimidin-2-yl)hexahydropyrrolo[3,4-c]pyrrol-2(1H)-yl)methanone], 1200 nM.

On to `O=C(c1ccccc1-c1ccc(C(F)(F)F)cc1)N1CC2CN(c3cnc4ccccc4n3)CC2C1` (stereo not drawn) [Example 194, (5-Quinoxalin-2-yl-hexahydro-pyrrolo[3,4-c]pyrrol-2-yl)-(4′-trifluoromethyl-biphenyl-2-yl)-methanone], for which the Ki is 10000 nM. `COc1cc(OC)nc(N2CC3CN(C(=O)c4ccccc4-n4nccn4)CC3C2)n1` (stereo not drawn) [Example 84, 2-(4,6-Dimethoxypyrimidin-2-yl)-5-{[2-(2H-1,2,3-triazol-2-yl)phenyl]carbonyl}octahydropyrrolo[3,4-c]pyrrole]: the Ki is 53 nM.

For `CN(C)c1nc(N2CC3CN(C(=O)c4cc(F)ccc4-n4nccn4)CC3C2)cc(C(F)(F)F)n1` (stereo not drawn) [Example 110, 4-[5-{[5-Fluoro-2-(2H-1,2,3-triazol-2-yl)phenyl]carbonyl}hexahydropyrrolo[3,4-c]pyrrol-2(1H)-yl]-N,N-dimethyl-6-(trifluoromethyl)pyrimidin-2-amine], the Ki was 52 nM.

As to `COc1ccc(C(=O)N2CC3CN(c4cnc5ccccc5n4)CC3C2)c(OC)c1` (stereo not drawn) [Example 191, (2,4-Dimethoxy-phenyl)-(5-quinoxalin-2-yl-hexahydro-pyrrolo[3,4-c]pyrrol-2-yl)-methanone], the Ki is 2660 nM.

Regarding `Cc1cc(C)nc(N2CC3CN(C(=O)c4cccc5c4-c4ccccc4C5)CC3C2)n1` (stereo not drawn) [Example 326, 2-(4,6-Dimethylpyrimidin-2-yl)-5-(9H-fluoren-4-ylcarbonyl)octahydropyrrolo[3,4-c]pyrrole], the Ki was 8 nM.
